# Assay results from patent publication US20040219232A1, “Methods and compounds for treating malabsorption diseases and inflammatory conditions of the gastrointestinal tract” (Zengen, Inc., priority 2003, published 2004).
# Entries after “also recorded” stand apart in the source; their conditions may differ. Where no end group is shown, it is not given here. [ ]: non-standard residue; d: D form. dNle = CCCC[C@@H](N)C(=O)O
# What was measured:
# [1] = tested on: IL-1β, IL-6 and TNF-α production by celiac mucosa; experiment: Spontaneous (non-stimulated) cytokine production by duodenal mucosa specimens incubated 24 h in vitro, with or without synthetic α-MSH; type: cell-based, human; details: α-MSH 10^−5 M in incubation medium, no gliadin
# From the text: (§1) Four biopsy specimens from the distal duodenum were obtained during upper gastrointestinal endoscopy. Two of such specimens were fixed in 10% formalin and paraffin embedded for standard histological examination. The remaining two specimens from each subject were available for this research and were allocated for either 1) RT-PCR and immunohistochemical studies (N=20: 9 celiac, 7 celiac on diet, 4 normal); 2) cytokine production in vitro in the presence or absence of α-MSH(N=22: 11 celiac, 6 celiac on diet, 5 normal); or 3) cytokine production in vitro after gliadin stimulation in the presence or absence of α-MSH(N=25: 14 celiac, 6 celiac on diet, 5 normal).
# (§2) A series of 47 specimen pairs were used to evaluate cytokine production by celiac mucosa in vitro and the influence of α-MSH on such production. […]
# (§3) α-MSH was measured using a double-antibody radioimmunoassay (RIA) method (Eurodiagnostica, Malmo, Sweden); the sensitivity calculated from a decrease in binding of 2 SD in the zero standard was 4.8 pg/ml and the cross-reactivity with other POMC peptides (ACTH [1-24], ACTH [1-39], β-MSH, γ-MSH) is <0.002%. IL-1β, IL-6, and TNF-α were determined using commercial ELISA methods (Amersham Pharmacia Biotech, Little Chalfont, UK).
# (§4) Values were expressed as means±SEM. […]
# [2] = tested on: IL-6 production by gliadin-stimulated duodenal mucosa; experiment: Gliadin-stimulated cytokine production by duodenal mucosa specimens incubated 24 h in vitro, with or without synthetic α-MSH; type: cell-based, human; details: co-incubation with α-MSH 10^−5 M, controls, untreated celiac and treated celiac patients (all groups), ELISA
# From the text: as §1, §2, §3, §4
# [3] = has been shown; no method given; cited from earlier work
# fever = details: compared with α-MSH; cited from earlier work
# [4] = Potency/efficacy of α-MSH fragments and derivatives compared to parent α-MSH (anti-inflammatory and/or antipyretic properties); details: discovered by the inventors; no method or data given
# From the text: It is contemplated that derivatives of α-MSH will have analogous function. It is understood that derivatives of α-MSH means functionally equivalent peptides. […] Thus, α-MSH derivative would include, among others, the partial segments of the 13 amino acid peptide. Specifically, α-MSH is composed of the following sequence of amino acids: SYSMEHFRWGKPV (SEQ ID. NO. 1). […] These derivatives of the parent α-MSH are functional equivalents.
# [5] = compared with L-form tripeptide; cited from earlier work
substance,measurement,setting,value
"SYSMEHFRWGKPV [α-MSH, 13 amino acid peptide produced by post-translational processing of pro-opiomelanocortin; synthetic peptide used in the tests]","Non-stimulated 24 h production of IL-1β, IL-6 and TNF-α by celiac mucosa after addition of α-MSH",[1],no change
same,IL-6 production/release in supernatants of gliadin-stimulated duodenal specimens,[2],significantly decreased; also recorded: substantial reduction; also recorded: significantly reduced; also recorded: statistically significant inhibition
KPV,Potency/efficacy compared to parent α-MSH,[3],as potent or more potent than the parent α-MSH
"[Nle^4,D-Phe^7]-α-MSH",Potency in reducing fever relative to the parent peptide α-MSH,fever,approximately ten times more potent
His-DNle-Arg-Trp-Phe-Lys-Pro-Val (H[dNle]RWFKPV),Potency over the parent α-MSH and its derivatives,[4],increased potency
Ac-[D-K11]-α-MSH 11-13-NH2,Potency relative to the L-form of the tripeptide α-MSH (11-13),[5],same general potency
